Results published in patent US20240075050A1, “Methods and Compositions for Treating Leucine Rich Repeat Kinase 2 (LRRK2)-Associated Disorder or Condition” (University of Connecticut, priority 2022, published 2024).

How the values were obtained:
[1] = system: DA neurons in substantia nigra pars compacta; experiment: LPS-induced DA neurodegeneration in mice, TH-positive neurons in SNpc; assay type: in vivo, mouse; settings: 21 days
Method: Stereotaxic intracranial injection. Three days before survival surgery, osmotic pumps (ALZET, 1004) were filled with saline, 1 mg/ml or 30 mg/ml AICAr in saline, assembled with brain infusion kits (ALZET, Brain Infusion Kit 2), and incubated in saline at 37° C. 3-month-old mice were anesthetized by isoflurane gas supplemented with 0.5 L/min oxygen. A ˜1.5 cm incision was made midline on the scalp. For mouse striatum injection, one hole was drilled at the following coordinates: anterioposterior=+0.5 mm from bregma; lateral=−2.0 mm from bregma; dorsoventral=−3.5 mm. For mouse substantia nigra pars compacta (SNpc) injection, one hole was drilled at the following coordinates: anterioposterior=−3.2 mm from bregma; lateral=−1.2 mm from bregma; dorsoventral=−4.2 mm. 1 ul LPS (5 ug) or PBS was injected at a rate of 0.2 ul/min using a Hamilton syringe with a 26-gauge blunt needle. […]
Immunohistochemistry. […] After antigen retrieval with 10 mM sodium citrate (pH 6.0) and 0.05% Tween-20 at 37° C. for 30 minutes, brain sections were washed in PBS for three times, permeabilized with 0.3% Triton X-100 in PBS, blocked with 10% goat serum in PBS, incubated with anti-tyrosine hydroxylase (TH) antibody overnight at 4° C., and then detected with Biotin-SP goat anti-rabbit IgG antibody at room temperature for 2 hours. […]
Stereological cell counting. […] Total cells were counted from 8 serial sections per animal.

GBA mRNA = GBA mRNA levels by real-time PCR in SH-SY5Y cells; assay type: cell-based, human; settings: 2 mM, 24 hours
Method: Real-Time PCR (qPCR). SH-SY5Y WT or AUF1-KO cells were treated with or without 2 mM AICAr for 24 hours, and total RNA was extracted from 3×10^5 cells of each treatment using TRIzol™ Reagent (Invitrogen) as per the manufacturer's introductions. Real-Time PCR (qPCR) assay was performed using GoTaq® 2-Step RT-PCR System (Promega) as per the manufacturer's introductions. Briefly, total cDNA was reversely transcribed from RNA pools (1.5 μg RNA in a 10 μl reaction mixture) using random primers. The qPCR reaction was run in CFX96 qPCR detection system (Bio-Rad) with 3 μl cDNA (1:20 dilution) in a 10 μl reaction mixture (Table 3), and set at 95° C. for 2 minutes followed by 40 amplification cycles of 95° C. for 15 seconds, 60° C. for 1 min with a melting curve, 95° C. for 15 seconds, 60° C. for 1 min, a ramp from 60° C. to 95° C. at an 1% rate, and 95° C. for 15 seconds. Melt curves were monitored to assess qPCR amplicons, and critical threshold (Ct) values were collected with an enclosed software. Relative gene expression was analyzed by normalization against Ct values of f-ACTIN (housekeeping gene) and then determined by comparison with expression levels of control sample using the relative expression index (2-ΔΔCt) method.

In the case of NC(=O)c1ncn([C@@H]2O[C@H](CO)[C@@H](O)[C@H]2O)c1N [AICAr, 5-aminoimidazole-4-carboxamide riboside], the LPS-induced neurodegeneration ([1]; LRRK2 KO mice, AICAr 2.4 μg/day/animal into SNpc) is reported as “did not significantly rescue”, the “LPS-induced DA neurodegeneration” value ([1]; WT mice, AICAr 2.4 μg/day/animal into SNpc by osmotic pumps) is reported as “significantly reduced” and the “GBA mRNA levels” value (GBA mRNA) is reported as “no changes”.
